# Test results published in the supplement of paper PMC9663587.
# Tests used:
# Etoposide = compound: COc1cc([C@@H]2c3cc4c(cc3[C@@H](O[C@@H]3O[C@@H]5CO[C@@H](C)O[C@H]5[C@H](O)[C@H]3O)[C@H]3COC(=O)[C@H]23)OCO4)cc(OC)c1O [Etoposide]
# Buparlisib/NVP-BKM120 = compound: Nc1cc(C(F)(F)F)c(-c2cc(N3CCOCC3)nc(N3CCOCC3)n2)cn1 [Buparlisib/NVP-BKM120]
# [1] = compound: Cc1nn(C)c(COc2ccc(N3CCN(S(=O)(=O)N(C)C)CC3)cc2)c1-c1cccc2c(CCCOc3cccc4ccccc34)c(C(=O)O)n(CCN3CCOCC3)c12
# YKL-5-124 = compound: C=CC(=O)Nc1ccc(C(=O)Nc2[nH]nc3c2CN(C(=O)N[C@H](CN(C)C)c2ccccc2)C3(C)C)cc1 [YKL-5-124]
# [2] = compound: COc1cccc(OCCCN)c1-c1cc(Nc2cnc(C#N)cn2)n[nH]1
# Bleomycin = compound: CC1=C(N=C(N=C1N)[C@H](CC(=O)N)NC[C@@H](C(=O)N)N)C(=O)N[C@@H]([C@H](C2=CN=CN2)OC3C(C(C(C(O3)CO)O)O)OC4C(C(C(C(O4)CO)O)OC(=O)N)O)C(=O)N[C@H](C)[C@H]([C@H](C)C(=O)N[C@@H]([C@@H](C)O)C(=O)NCCC5=NC(=CS5)C6=NC(=CS6)C(=O)NCCC[S+](C)C)O [Bleomycin]; conditions: main component drawn
# BVD523 = compound: CC(C)Nc1cc(-c2c[nH]c(C(=O)N[C@H](CO)c3cccc(Cl)c3)c2)c(Cl)cn1 [BVD523]
# Topotecan = compound: CC[C@@]1(O)C(=O)OCc2c1cc1n(c2=O)Cc2cc3c(CN(C)C)c(O)ccc3nc2-1 [Topotecan]
# TGX221 = compound: CC1=CN2C(=O)C=C(N=C2C(=C1)C(C)NC3=CC=CC=C3)N4CCOCC4 [TGX221]
# Cisplatin = compound: N.N.Cl[Pt]Cl [Cisplatin]
# INK128/MLN0128 = compound: CC(C)n1nc(-c2ccc3oc(N)nc3c2)c2c(N)ncnc21 [INK128/MLN0128]
# [3] = compound: CNc1nc(-c2ccc3c(N)n[nH]c3c2)cc(N2C[C@@H](C(=O)NC3CCCCC3)CC[C@H]2C)n1
# FMF-03-145-1 = compound: CCC(=O)Nc1ccc(C(=O)Nc2ccc(Nc3ncc4c(n3)N(C)c3ccc(C)cc3C(=O)N4C)cc2)cc1 [FMF-03-145-1]
# Everolimus = compound: CO[C@H]1C[C@@H]2CC[C@@H](C)[C@@](O)(O2)C(=O)C(=O)N2CCCC[C@H]2C(=O)O[C@H]([C@H](C)C[C@@H]2CC[C@@H](OCCO)[C@H](OC)C2)CC(=O)[C@H](C)/C=C(\C)[C@@H](O)[C@@H](OC)C(=O)[C@H](C)C[C@H](C)/C=C/C=C/C=C/1C [Everolimus]
# 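Further: breast cancer and non-malignant breast epithelial cell lines, Deep Dye Drop or Dye Drop imaging, nine half-log doses, GR normalized to time-zero plates and DMSO-only controls.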
Cell Line,"GR50, 72 h (Etoposide) [µM]","GR50, 72 h (Buparlisib/NVP-BKM120) [µM]","GR50, 72 h [1] [µM]","GR50, 72 h (YKL-5-124) [µM]","GR50, 72 h [2] [µM]","GR50, 72 h (Bleomycin) [µM]","GR50, 72 h (BVD523) [µM]","GR50, 72 h (Topotecan) [µM]","GR50, 72 h (TGX221) [µM]","GR50, 72 h (Cisplatin) [µM]","GR50, 72 h (INK128/MLN0128) [µM]","GR50, 72 h [3] [µM]","GR50, 72 h (FMF-03-145-1) [µM]","GR50, 72 h (Everolimus) [µM]"
HCC1143,0.463,0.725,> 10,< 0.001,0.000582,0.0482,1.74,0.00941,> 10,0.837,0.0405,> 10,0.00583,> 10
HCC1187,,0.619,> 10,,,,> 10,,,,0.0661,> 10,,> 10
HCC1395,0.42,0.93,> 10,0.00123,0.000487,0.104,1.72,0.00275,8.42,0.491,0.0108,> 10,0.00474,0.00256
HCC1419,0.736,0.396,> 10,< 0.001,0.000648,4.04,> 10,0.00719,> 10,1.79,0.00475,7.64,0.00703,
HCC1428,0.214,0.692,> 10,,,4.26,,0.0106,> 10,0.901,0.00593,,,0.031
HCC1500,1.43,0.211,> 10,,,2.28,,0.00546,> 10,3.45,0.000784,,,
HCC1569,,0.908,> 10,,0.00228,,> 10,,> 10,,0.0132,> 10,,> 10
HCC1806,0.0964,1.05,> 10,< 0.001,,8.98,> 10,0.00527,> 10,0.833,0.0524,> 10,,> 10
HCC1937,0.355,1.45,> 10,0.00225,0.000607,0.187,> 10,0.0155,> 10,0.777,0.0515,> 10,0.00546,> 10
HCC1954,0.171,0.523,> 10,< 0.001,,0.0438,2.94,0.0119,> 10,1.25,0.0142,> 10,,
HS578T,0.413,0.687,> 10,< 0.001,,0.252,1.14,0.00498,> 10,1.54,0.00906,> 10,,0.00554
HTERT_HME1,0.138,1.15,0.899,< 0.001,0.000593,0.207,0.213,0.00727,> 10,1.12,0.0335,> 10,0.00584,
MCF7,0.135,0.187,> 10,< 0.001,,0.0772,3.8,0.00604,> 10,9.32,0.00298,3.23,,0.00269
